This is an account of results in patent US9233979B2, “Compounds that are ERK inhibitors” (Merck Sharp & Dohme Corp., priority 2012, dated 2016).

The structures appear in SMILES notation. pIC50: −log10 of the molar value.

Sequence of phosphorylated active hERK2 enzyme (P28482 whole entry): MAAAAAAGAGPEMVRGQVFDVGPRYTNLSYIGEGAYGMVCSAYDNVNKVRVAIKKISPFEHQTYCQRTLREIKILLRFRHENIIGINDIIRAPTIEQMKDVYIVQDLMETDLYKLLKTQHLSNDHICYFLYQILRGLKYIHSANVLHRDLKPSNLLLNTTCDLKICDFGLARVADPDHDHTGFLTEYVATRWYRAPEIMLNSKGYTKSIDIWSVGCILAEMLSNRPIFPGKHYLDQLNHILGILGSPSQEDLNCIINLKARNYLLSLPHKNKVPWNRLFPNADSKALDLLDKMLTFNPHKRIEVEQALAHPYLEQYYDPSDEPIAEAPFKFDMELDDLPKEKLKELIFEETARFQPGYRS

The target in one assay is phosphorylated active hERK2 enzyme (Homo sapiens (Human), UniProt P28482). Put plainly: Active Human ERK2 (hERK2) Activity Assay (IMAP-FP). Format: biochemical. The following applies: Table 5, 0.5 nM hERK2, 30 μM ATP, 10 point titration, read-out: AERK2 IC50. The method in brief:
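IMAP detection beads in buffer with 24 mM NaCl stopped the reaction, and fluorescence polarization was read after 60 min binding.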
In the case of `CC(=O)Nc1n[nH]c2c(F)c(NC(=O)N[C@H](C)c3ccccc3)ncc12` [Example 58, (R)—N-(7-Fluoro-6-(3-(1-phenylethyl)ureido)-1H-pyrazolo[4,3-c]pyridin-3-yl)acetamide], the pIC50 (as a rule, the negative decadic logarithm of the IC50, by convention in mol/L) is 8.19.

Take `COCCNC(=O)Nc1cc2[nH]nc(N3CCOCC3)c2cn1` [Example 20, 1-(2-methoxyethyl)-3-(3-morpholin-4-yl-1H-pyrazolo[4,3-c]pyridin-6-yl)urea]: the pIC50 was 7.87.

The assay is the same for the next values; noted with them: Table 6, 0.5 nM hERK2, 30 μM ATP, 10 point titration, read-out: AERK2 IC50.
Turning to `CC(C)OC(=O)Nc1n[nH]c2cc(NC(=O)N[C@@H](c3ccc(F)cc3)C(C)(C)O)ncc12` [Example 403, 1-methylethyl [6-({[(1S)-1-(4-fluorophenyl)-2-hydroxy-2-methyl-propyl]carbamoyl}amino)-1H-pyrazolo[4,3-c]-pyridin-3-yl]-carbamate], the pIC50 was 8.96.

As to `COC(=O)Nc1n[nH]c2cc(NC(=O)NC(C)c3ccc(F)c(F)c3)ncc12` (stereo not shown) [Example 303, methyl [6-({[1-(3,4-difluoro-phenyl)ethyl]-carbamoyl}amino)-1H-pyrazolo[4,3-c]pyridin-3-yl]-carbamate], the pIC50 was 8.51.

Regarding `O=C(Nc1cc2[nH]nc(NC(=O)N3CC(F)(F)C3)c2cn1)N[C@@H]1CCCOc2ccccc21` [Example 397, 3,3-difluoro-N-(6-{[(5R)-2,3,4,5-tetrahydro-1-benzoxepin-5-yl-carbamoyl]amino}-1H-pyrazolo[4,3-c]pyridin-3-yl)-azetidine-1-carboxamide], the pIC50 was 8.36.

As for `COC[C@@H](NC(=O)Nc1cc2[nH]nc(N[C@@H]3CCOC3)c2cn1)c1ccccc1` [Example 75, 1-[(1S)-2-methoxy-1-phenylethyl]-3-{3-[(3R)-tetrahydro-furan-3-ylamino]-1H-pyrazolo[4,3-c]-pyridin-6-yl}urea], the pIC50 is 9.10.

Regarding `CC(Nc1n[nH]c2cc(NC(=O)N[C@H](C)c3ccccc3)ncc12)C1CCOCC1` (stereo partly drawn) [Example 171, 1-[(1R)-1-phenylethyl]-3-(3-{[1-(tetrahydro-2H-pyran-4-yl)-ethyl]amino}-1H-pyrazolo[4,3-c]-pyridin-6-yl)urea], the pIC50 is 8.39.

With `COC(=O)Nc1n[nH]c2cc(NC(=O)N[C@H]3c4ccccc4OCC[C@H]3O)ncc12` [Example 394, methyl [6-({[(4R,5S)-4-hydroxy-2,3,4,5-tetrahydro-1-benzoxepin-5-yl]-carbamoyl}amino)-1H-pyrazolo[4,3-c]pyridin-3-yl]-carbamate], the pIC50 was 9.52.

`CCNc1n[nH]c2cc(NC(=O)N[C@H](CO)c3ccccc3)ncc12` [Example 67, 1-[3-(ethylamino)-1H-pyrazolo[4,3-c]pyridin-6-yl]-3-[(1S)-2-hydroxy-1-phenylethyl]urea]: the pIC50 was 9.15.

Regarding `COC(=O)Nc1n[nH]c2cc(NC(=O)N[C@H](C)c3ccc(F)c(Cl)c3)ncc12` [Example 300, methyl [6-({[(1R)-1-(3-chloro-4-fluorophenyl)ethyl]carbamoyl}amino)-1H-pyrazolo[4,3-c]pyridin-3-yl]-carbamate], the pIC50 is 8.54.

As to `COC[C@@H](NC(=O)Nc1cc2[nH]nc(NC(C)C(F)(F)F)c2cn1)c1ccccc1` (stereo partly drawn) [Example 421, 1-[(1S)-2-methoxy-1-phenylethyl]-3-{3-[(2,2,2-trifluoro-1-methylethyl)-amino]-1H-pyrazolo[4,3-c]-pyridin-6-yl}urea], the pIC50 is 9.22.

For the molecule `CC(NC(=O)Nc1cc2[nH]nc(N)c2cn1)c1ccc(F)c(F)c1` (stereo not shown) [Example 275, 1-(3-amino-1H-pyrazolo[4,3-c]-pyridin-6-yl)-3-[1-(3,4-difluorophenyl)-ethyl]urea], the pIC50 was 8.34.

Regarding `COCC(=O)Nc1n[nH]c2cc(NC(=O)N[C@H](C)c3ccccc3)ncc12` [Example 318, (R)-2-methoxy-N-(6-(3-(1-phenylethyl)ureido)-1H-pyrazolo[4,3-c]pyridin-3-yl)acetamide], the pIC50 is 8.66.

As to `C[C@@H](NC(=O)Nc1cc2[nH]nc(N3CC(C#N)C3)c2cn1)c1ccccc1` [Example 93, 1-[3-(3-cyanoazetidin-1-yl)-1H-pyrazolo[4,3-c]-pyridin-6-yl]-3-[(1R)-1-phenylethyl]urea], the pIC50 is 8.00.

On to `C[C@@H](NC(=O)Nc1cc2[nH]nc(NC3COC3)c2cn1)c1ccccc1` [Example 188, 1-[3-(oxetan-3-yl-amino)-1H-pyrazolo[4,3-c]pyridin-6-yl]-3-[(1R)-1-phenylethyl]urea], for which the pIC50 is 6.84.

Consider `CCNc1n[nH]c2cc(NC(=O)NCc3ccccc3OC(F)F)ncc12` [Example 228, 1-[2-(difluoro-methoxy)benzyl]-3-[3-(ethylamino)-1H-pyrazolo[4,3-c]pyridin-6-yl]urea], for which the pIC50 is 8.46.

On to `COC[C@H](NC(=O)Nc1cc2[nH]nc(N3CCOCC3)c2cn1)c1ccc(F)cc1` [Example 339, (R)-1-(1-(4-fluorophenyl)-2-methoxyethyl)-3-(3-morpholino-1H-pyrazolo[4,3-c]-pyridin-6-yl)urea], for which the pIC50 was 9.40.

As to `C[C@@H](NC(=O)Nc1cc2[nH]nc(N[C@@H]3CCOC3)c2cn1)c1ccccc1` [Example 74, 1-[(1R)-1-phenylethyl]-3-{3-[(3R)-tetrahydro-furan-3-ylamino]-1H-pyrazolo[4,3-c]-pyridin-6-yl}urea], the pIC50 is 8.77.

Take `CCNc1n[nH]c2cc(NC(=O)NC(C(=O)N(C)C)c3ccc(F)cc3)ncc12` (stereo not shown) [Example 414, 2-({[3-(ethylamino)-1H-pyrazolo[4,3-c]-pyridin-6-yl]-carbamoyl}amino)-2-(4-fluorophenyl)-N,N-dimethyl-acetamide]: the pIC50 was 6.38.

Regarding `C[C@@H](NC(=O)Nc1cc2[nH]nc(NCC3CC(C(C)(C)O)C3)c2cn1)c1ccccc1` (stereo partly drawn) [Example 177, 1-[3-({[3-(1-hydroxy-1-methyl-ethyl)cyclobutyl]-methyl}amino)-1H-pyrazolo[4,3-c]pyridin-6-yl]-3-[(1R)-1-phenylethyl]urea], the pIC50 is 7.92.

`COC(=O)Nc1n[nH]c2cc(NC(=O)NC(c3ccc(Cl)c(Cl)c3)c3cnco3)ncc12` (stereo not shown) [Example 392, methyl [6-({[(3,4-dichlorophenyl)(1,3-oxazol-5-yl)-methyl]carbamoyl}amino)-1H-pyrazolo[4,3-c]-pyridin-3-yl]-carbamate]: the negative-log IC50 (pIC50) is 8.59.

Regarding `C[C@@H](NC(=O)Nc1cc2[nH]nc(NC3CCC(N(C)C)CC3)c2cn1)c1ccccc1` (stereo partly drawn) [Example 172, 1-(3-{[4-(dimethylamino)-cyclohexyl]amino}-1H-pyrazolo[4,3-c]pyridin-6-yl)-3-[(1R)-1-phenylethyl]urea], the pIC50 is 7.51.

As for `CCNc1n[nH]c2cc(NC(=O)N[C@H](C)c3ccccc3)nc(CO)c12` [Example 70, 1-[3-(ethylamino)-4-(hydroxymethyl)-1H-pyrazolo[4,3-c]-pyridin-6-yl]-3-[(1R)-1-phenylethyl]urea], the pIC50 is 9.22.

Take `COC[C@@H](NC(=O)Nc1cc2[nH]nc(Nc3ccccc3F)c2cn1)c1ccccc1` [Example 384, 1-{3-[(2-fluoro-phenyl)amino]-1H-pyrazolo[4,3-c]-pyridin-6-yl}-3-[(1S)-2-methoxy-1-phenylethyl]urea]: the pIC50 is 8.03.

`CCNc1n[nH]c2cc(NC(=O)N[C@H](CC)c3ccc(Cl)cc3)ncc12` [Example 247, 1-[(1R)-1-(4-chlorophenyl)propyl]-3-[3-(ethylamino)-1H-pyrazolo[4,3-c]-pyridin-6-yl]urea]: the pIC50 is 8.66.
